Reference: publication PMC3988166 (PLoS ONE, 2014)
Where two headings read alike, the source gives them in different places.

Assays:
[1] = Caco-2 cell permeability assay in the presence of phloretin (inhibitor for GLUT2); format: in vitro ADME, human; details: Caco-2 cell monolayer, 200 µM compound + 100 µM phloretin, n = 3; read-out: P app, Phloretin
Description: (§1) Permeability experiments (as described above) were conducted to investigate whether the compounds used the sugar transporters SGLT1 or GLUT2 for their transport across cell membranes. Samples containing 200 µM test compound and 100 µM phlorizin (inhibitor for SGLT1) or 100 µM phloretin (inhibitor for GLUT2) in HBSS-HEPES buffer were added to the apical chamber. […] P app values for each compound were then calculated as above.

Recombinant human ASGPR = target: T1, Recombinant human ASGPR (Homo sapiens, UniProt P07306); experiment: biochemical; format: binding
T1 construct: purchased Sino Biological Inc. (Beijing, China)
T1 sequence (P07306 62-291 limits assumed): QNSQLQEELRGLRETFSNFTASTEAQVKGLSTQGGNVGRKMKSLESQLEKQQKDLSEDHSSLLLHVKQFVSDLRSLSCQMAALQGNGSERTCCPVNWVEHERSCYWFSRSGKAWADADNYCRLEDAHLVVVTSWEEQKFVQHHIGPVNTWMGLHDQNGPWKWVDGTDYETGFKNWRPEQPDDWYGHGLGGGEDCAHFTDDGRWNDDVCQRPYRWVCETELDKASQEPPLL
Description: SPR experiments were performed on a Biacore T100 (GE Healthcare, Little Chalfont, UK) at 25°C. Recombinant human ASGPR (the subunit of ASGPR that contains the carbohydrate binding site) used was from Sino Biological Inc. (Beijing, China). The receptor was immobilized onto a series S sensor chip CM5 (GE Healthcare, Little Chalfont, UK) using the N-hydroxysuccinimide (NHS) capture kit (GE Healthcare, Little Chalfont, UK).
Recombinant human ASGPR was immobilized onto a series S sensor chip CM5 using the NHS capture kit, where ASGPR was covalently linked to the surface of the chip via free amine groups. Compounds were tested at 10–1000 µM concentrations using multi-cycle kinetics with at least three experiments performed for each interaction. Single cycle kinetics was applied to optimize concentrations prior to completion of multi-cycle kinetics as described by Dumont et al.. […] The running buffer for all SPR experiments was 20 mM HEPES, pH 7.4, 150 mM NaCl, 5 mM CaCl2, and 0.005% TWEEN 20.

[2] = Caco-2 cell permeability assay in the presence of phlorizin (inhibitor for SGLT1); format: in vitro ADME, human; details: Caco-2 cell monolayer, 200 µM compound + 100 µM phlorizin, n = 3; read-out: P app, Phlorizin
Description: as §1

Plasma stability assay = format: in vitro ADME; details: human, after incubation at 37°C for 120 min, read-out: % remained in human plasma
Description: Blood sample collection from a healthy and consenting human adult for this study was approved by and conducted according to the guidelines set by The University of Queensland Medical Research Ethics Committee (approval number: 2009000661). Written consent was obtained prior to the collection of blood samples. Plasma was isolated from fresh-heparin treated blood by centrifugation at 660×g for 15 min. […] Compounds (300 µL) were mixed with 300 µL of the plasma, pre-warmed at 37°C and incubated at 37°C. Samples (50 µL) were collected at predetermined time points (0, 5, 10, 20, 30, 40, 60, 90 and 120 min), and added into 75 µL ACN to precipitate the plasma proteins. Samples were then centrifuged at 7300×g for 10 min.

[3] = Caco-2 cell permeability assay; details: Caco-2; for Papp A→B at 150 min, 200 µM: human
Description: (§2) Human colorectal adenocarcinoma cells (Caco-2 cells) were obtained from the American Type Culture Collection, Rockville, USA. A Branson Sonifier 250 (Branson Ultrasonics, Danbury, USA) was used to lyse the cells for stability experiments. Protein content was measured using the BioRad protein assay kit (BioRad, Hercules, USA). TPP 96-well plates for stability assays were purchased from Sigma Aldrich (Castle Hill, Australia). For permeability studies Caco-2 cell monolayers were grown in 24 well plates with Transwell polycarbonate cell culture inserts (pore size 0.4 µm, diameter 6.5 mm) from Corning Incorporated (New York, USA). A Millicell-ERS epithelial Transep volt-ohmmeter system (EMD Millipore Corporation, Billerica, USA) was used to measure the transepithelial electrical resistance (TEER) values of the cells. Scintillation counting was carried out using Liquid Scintillation Systems from Beckman Coulter (Brea, USA).
(§3) A cell suspension of Caco-2 cells in the cell culture medium was adjusted to a cell density of 1×10^6 cells/mL before being aliquoted (100 µL) into Transwell polycarbonate cell culture inserts in a 24-well plate, while 600 µL of media was added to the basolateral chamber. The culture medium was changed every other day for 21–28 days. TEER values were measured before and after the assay, to determine the integrity of tight junctions of the cell monolayers. […] Cell monolayers were washed with pre-warmed HBSS–HEPES and incubated for 30 min at 37°C. Test compounds and the control propanolol, were prepared in HBSS–HEPES buffer to a final concentration of 200 µM. After incubation, buffer in the apical chamber was removed and replaced with 100 µL aliquots of each of the test compounds. […] The concentration of the peptide in the collected samples was determined using LC-MS analysis as described for the stability assay above. Radioactivity of the [^14C]-D-mannitol samples was quantified by liquid scintillation counting (Liquid Scintillation Systems).
(§4) The apparent permeability (Papp, cm/s) of each compound was calculated using the following equation: [drawing 1]
(§5) Where dC/dt is the steady-state rate of change in the test item concentration (M/s) or radiochemical concentration (dpm mL/s) in the receiver chamber, Vr is the volume of the receiver chamber (mL), A is the surface area of the cell monolayers and C0 is the initial concentration in the donor chamber (M or dpm/mL).
(§6) The average Papp values (±S.D.) from three replicates is presented.

Caco-2 cell monolayers = experiment: Caco-2 cell permeability assay
Description: as §2, §3, §4, §5, §6

[4] = target: Leu-enkephalin (Homo sapiens); experiment: SPR
Gal-Enk (Homo sapiens) = experiment: SPR
Lac-Enk (Homo sapiens) = experiment: SPR
[5] = target: Gal-Lac-Enk (Homo sapiens); experiment: SPR

## CC(C)C[C@H](NC(=O)[C@H](Cc1ccccc1)NC(=O)CNC(=O)CNC(=O)[C@H](Cc1ccc(O)cc1)NC(=O)CCC(=O)N[C@@H]1O[C@H](CO)[C@@H](O[C@@H]2O[C@H](CO)[C@H](O)[C@H](O)[C@H]2O)[C@H](O)[C@H]1O)C(N)=O [Lac-Enk, N^1-Leu-enkephalin-N^4-(β-D-galactopyranosyl-(1→4)-β-D-glucopyranosyl)succinamide]
[1]
  Papp A→B: 0.921 ± 0.084 ×10⁻⁶ cm/s
Recombinant human ASGPR
  koff: 0.0086 ± 0.002 s⁻¹
  kon: 40.7 ± 6.3 M⁻¹ s⁻¹
Recombinant human ASGPR; KD
  Kd: 211 ± 70.9 µM
[2]
  Papp A→B: 0.711 ± 0.145 ×10⁻⁶ cm/s
Plasma stability assay
  remaining at 2 h, 0.5 mg/mL: ~70%
[3]
  Papp A→B: 1.72 ×10⁻⁶ cm/s
Caco-2 cell monolayers; Caco-2 cell monolayer, 200 µM, n = 3
  P app, Control (compound only): 17.20±12.40 ×10^−7 cm/s

## CC(C)C[C@H](NC(=O)[C@H](Cc1ccccc1)NC(=O)CNC(=O)CNC(=O)[C@H](Cc1ccc(O)cc1)NC(=O)CCC(=O)N[C@@H]1O[C@H](CO)[C@@H](O[C@@H]2O[C@H](CO)[C@H](O[C@H]3O[C@H](CO)[C@H](O)[C@H](O)[C@H]3O)[C@H](O)[C@H]2O)[C@H](O)[C@H]1O)C(N)=O [Gal-Lac-Enk, N^1-Leu-enkephalin-N^4-(α-D-galactopyranosyl-(1→4)-β-D-galactopyranosyl-(1→4)-β-D-glucopyranosyl)succinamide]
[1]
  Papp A→B: 0.712 ± 0.137 ×10⁻⁶ cm/s
Recombinant human ASGPR
  increase in binding affinity compared to the peptide alone: two-fold
  koff: 0.0041 ± 0.003 s⁻¹
  kon: 45 ± 28.9 M⁻¹ s⁻¹
Recombinant human ASGPR; KD
  Kd: 91.1 ± 22.1 µM
[2]
  Papp A→B: 0.561 ± 0.137 ×10⁻⁶ cm/s
Plasma stability assay; plasma
  remaining at 2 h: ~100%
[3]
  Papp A→B at 150 min, 200 µM: 0.44 ± 0.163 ×10⁻⁶ cm/s

## OC[C@@H](O)[C@@H](O)[C@H](O)[C@H](O)CO [^14C mannitol, [^14C]-D-mannitol, reference compound]
Caco-2 cell monolayers; Caco-2 monolayers, apical to basolateral, compound only, values in text
  apparent permeability (Papp): 4.4×10^−9 (±3.86) cm/s

## OC[C@H]1O[C@@H](O[C@H]2[C@H](O)[C@@H](O)[C@H](O)O[C@@H]2CO)[C@H](O)[C@@H](O)[C@H]1O [D-Lactose, reference compound]
Recombinant human ASGPR; SPR, immobilized ASGPR, 25°C, read-out: KD
  Kd: 19.2 ± 3.28 µM

## CC(C)C[C@H](NC(=O)[C@H](Cc1ccccc1)NC(=O)CNC(=O)CNC(=O)[C@H](Cc1ccc(O)cc1)NC(=O)CCC(=O)N[C@@H]1O[C@H](CO)[C@H](O)[C@H](O)[C@H]1O)C(N)=O [Gal-Enk, N^1-Leu-enkephalin-N^4-(β-D-galactopyranosyl)succinamide]
[1]
  Papp A→B: 1.58 ± 0.723 ×10⁻⁶ cm/s
Recombinant human ASGPR
  koff: 0.072 ± 0.025 s⁻¹
  kon: 328 ± 84.8 M⁻¹ s⁻¹
Recombinant human ASGPR; KD
  Kd: 219 ± 164 µM
[2]
  Papp A→B: 1.18 ± 0.276 ×10⁻⁶ cm/s
Plasma stability assay
  remaining at 2 h, 0.5 mg/mL: ~60%
[3]
  Papp A→B at 150 min, 200 µM: 0.798 ± 0.203 ×10⁻⁶ cm/s

## CC(C)NCC(O)COc1cccc2ccccc12 (stereo not drawn) [propanolol, reference compound]
[3]
  Papp A→B at 150 min, 200 µM: 134 ×10⁻⁶ cm/s

B1: Asialoglycoprotein receptor (ASGPR, carbohydrate-binding subunit), P07306 (protein)
chain: MTKEYQDLQHLDNEESDHHQLRKGPPPPQPLLQRLCSGPRLLLLSLGLSLLLLVVVCVIGSQNSQLQEELRGLRETFSNFTASTEAQVKGLSTQGGNVGRKMKSLESQLEKQQKDLSEDHSSLLLHVKQFVSDLRSLSCQMAALQGNGSERTCCPVNWVEHERSCYWFSRSGKAWADADNYCRLEDAHLVVVTSWEEQKFVQHHIGPVNTWMGLHDQNGPWKWVDGTDYETGFKNWRPEQPDDWYGHGLGGGEDCAHFTDDGRWNDDVCQRPYRWVCETELDKASQEPPLL
[4]
  Kd: 277 µM
Gal-Enk (Homo sapiens)
  Kd: 219 µM
Lac-Enk (Homo sapiens)
  Kd: 211 µM
[5]
  Kd: 91.1 µM
